Experiment [1] concerns the target T1, GluClαF276A/βWT receptor (Caenorhabditis elegans, UniProt G5EBR3+Q17328, F276A).
T1 construct: entry codes of the full-length subunits used in this study; expressed in transfected cells; host or cells: CHO cells, transient co-transfection, pcDNA3.1 (X-tremeGENE HP for the IVM-EC50 experiments)
Put plainly: Whole-cell patch clamp in CHO cells, GluClαF276A/βWT receptor. Format: cell-based. The method, then:
(§1) Chinese hamster ovary (CHO) cells were cultured as previously (Bar-Lev et al., [2011]) in Dulbecco’s Modified Eagle Medium (DMEM) containing 10% fetal calf serum, 2 mM glutamax, 100 Units/ml penicillin G and 100 μg/ml streptomycin, and grown in 5% CO2 at 37°C under 90%–95% humidity. The cells were seeded on glass coverslips (13-mm diameter) placed in a 24-multiwell plate. […] For the expression of GluCl receptors, cells were transiently co-transfected with pcDNA3.1 plasmids containing the ORFs of interest using transit-LT1 transfection reagent (Mirus, Madison, WI, USA), according to the manufacturer’s protocol. The cDNAs encoding the C. elegans GluClα (GLC-1) or its mutated versions and the GluClβ (GLC-2) subunits (200–600 ng per well) were used at 1:1 ratio. The pIRES-CD8 plasmid (200 ng per well) was added to enable the visualization of the expressing cells by beads coated with anti-CD8 antibodies (Invitrogen). For high-level expression of the GluClαF276A/βWT mutant receptor in experiments assigned to determine its IVM-EC50, we used the X-tremeGENE HP DNA Transfection Reagent (Roche Life Science). Recordings were performed 72–96 h following the transfection.
(§2) Whole-cell patch clamp recordings were performed as described previously (Bar-Lev et al., [2011]) in CHO cells that were prepared as detailed above. The normal external solution (NES) contained (in millimolar): 140 NaCl, 2.8 KCl, 2 CaCl2, 2 MgCl2, 10 glucose and 10 HEPES, adjusted to pH 7.35 with NaOH (310 mOsm/L). The pipette solution contained (in millimolar): 130 KCl, 4 MgCl2, 4 Na2ATP, 1 EGTA and 10 HEPES, adjusted to pH 7.35 with KOH (290 mOsm/L). The osmolarity of these solutions was maintained by adding sucrose. The electrode resistance was 6–10 MΩ when filled with the pipette solution. External solutions were applied onto the cell by using the VC-77SP fast-step system (Warner Instruments, Hamden, CT, USA) combined with N2 pressure of 3–4 psi to produce laminar flow of the external solution onto the patched cell. All measurements were performed at room temperature. The currents were measured with an Axopatch 200B patch-clamp amplifier (Molecular Devices, Sunnyvale, CA, USA) and a Digidata 1440A interface (Molecular Devices). Acquisition of recording data was performed at 2.5 kHz and recordings were low-pass filtered at 1 kHz, through a four-pole Bessel filter. The pClamp 10 software (Molecular Devices) was used for data acquisition. […] Five-hundred milliseconds after the application started (which is also after the current reached to its peak at −60 mV), the voltage was stepped from −60 mV to −80 mV for 50 ms followed by a 250-ms-long voltage ramp ranging from −80 mV to +80 mV.
(§3) Dose-response curves were fitted to the data points by a nonlinear regression using the Hill Equation 1,

Experiment [2] addresses T2, GluClαY194R/βWT receptor (Caenorhabditis elegans, UniProt G5EBR3+Q17328, Y194R).
T2 construct: entry codes of the full-length subunits used in this study; expressed in transfected cells; host or cells: CHO cells, transient co-transfection 1:1, pcDNA3.1
Put plainly: Whole-cell patch clamp in CHO cells, GluClαY194R/βWT receptor. Format: cell-based. Particulars: +60 mV. As to the method:
as §1, with “For high-level expression of the GluClαF276A/βWT mutant receptor in experiments assigned to determine its IVM-EC50, we used the X-tremeGENE HP DNA Transfection Reagent (Roche Life Science). Recordings were performed 72–96 h following the transfection.” left out
(§4) Whole-cell patch clamp recordings were performed as described previously (Bar-Lev et al., [2011]) in CHO cells that were prepared as detailed above. […] The currents were measured with an Axopatch 200B patch-clamp amplifier (Molecular Devices, Sunnyvale, CA, USA) and a Digidata 1440A interface (Molecular Devices). […]

Experiment [3] has as its target T3, GluClαWT (GLC-1) homomeric receptor (Caenorhabditis elegans, UniProt G5EBR3).
T3 construct: entry codes of the full-length subunits used in this study; expressed in transfected cells; host or cells: CHO cells, transient transfection, pcDNA3.1
T3 sequence (G5EBR3 21-461): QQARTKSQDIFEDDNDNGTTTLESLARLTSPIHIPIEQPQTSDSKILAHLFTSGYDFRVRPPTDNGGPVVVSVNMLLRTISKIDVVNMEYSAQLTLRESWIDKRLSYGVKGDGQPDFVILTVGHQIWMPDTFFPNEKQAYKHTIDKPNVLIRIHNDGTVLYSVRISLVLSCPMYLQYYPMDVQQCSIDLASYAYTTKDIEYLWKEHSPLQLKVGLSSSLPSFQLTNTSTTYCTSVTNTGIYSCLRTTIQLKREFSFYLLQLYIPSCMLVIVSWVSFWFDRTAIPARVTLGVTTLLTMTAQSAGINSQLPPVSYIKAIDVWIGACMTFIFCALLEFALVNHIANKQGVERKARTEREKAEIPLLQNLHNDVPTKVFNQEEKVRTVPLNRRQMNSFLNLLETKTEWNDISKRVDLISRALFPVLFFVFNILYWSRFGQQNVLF
Further details: method as in Degani-Katzav et al., [2016]. Particulars: CHO cells, αWT alone; ref Degani-Katzav et al., [2016]; cited from earlier work.

Experiment [4] addresses T4, GluClαF276W/βWT receptor (Caenorhabditis elegans, UniProt G5EBR3+Q17328, F276W).
T4 construct: entry codes of the full-length subunits used in this study; expressed in transfected cells; host or cells: CHO cells, transient co-transfection 1:1, pcDNA3.1
The experiment can be described thus: Whole-cell patch clamp in CHO cells, GluClαF276W/βWT receptor. The experiment is classed as cell-based. To be noted: +60 mV. The method, then: as §1, with “For high-level expression of the GluClαF276A/βWT mutant receptor in experiments assigned to determine its IVM-EC50, we used the X-tremeGENE HP DNA Transfection Reagent (Roche Life Science). Recordings were performed 72–96 h following the transfection.” left out
as §4

Experiment [5] addresses T5, GluClβWT (GLC-2) homomeric receptor (Caenorhabditis elegans, UniProt Q17328).
T5 construct: entry codes of the full-length subunits used in this study; expressed in transfected cells; host or cells: CHO cells, transient transfection, pcDNA3.1
T5 sequence (Q17328 23-434): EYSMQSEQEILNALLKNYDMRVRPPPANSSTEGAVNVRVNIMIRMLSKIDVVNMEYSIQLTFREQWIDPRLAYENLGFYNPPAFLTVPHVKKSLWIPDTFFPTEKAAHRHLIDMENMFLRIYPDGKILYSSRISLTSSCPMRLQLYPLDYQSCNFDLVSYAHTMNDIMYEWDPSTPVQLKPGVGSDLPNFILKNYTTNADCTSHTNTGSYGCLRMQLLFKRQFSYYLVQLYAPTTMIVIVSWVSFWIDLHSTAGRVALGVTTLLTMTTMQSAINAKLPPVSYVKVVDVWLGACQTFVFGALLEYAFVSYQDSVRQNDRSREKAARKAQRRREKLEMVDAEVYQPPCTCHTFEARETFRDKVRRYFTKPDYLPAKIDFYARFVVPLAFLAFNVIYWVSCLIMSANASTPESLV
Particulars: CHO cells, βWT alone, ref Degani-Katzav et al., cited from earlier work.

Experiment [6] deals with T6, GluClαE273R/βWT receptor (Caenorhabditis elegans, UniProt G5EBR3+Q17328, E273R).
T6 construct: entry codes of the full-length subunits used in this study; expressed in transfected cells; host or cells: CHO cells, transient co-transfection 1:1, pcDNA3.1
T6 sequence (G5EBR3 21-461 E273R, one chain of several): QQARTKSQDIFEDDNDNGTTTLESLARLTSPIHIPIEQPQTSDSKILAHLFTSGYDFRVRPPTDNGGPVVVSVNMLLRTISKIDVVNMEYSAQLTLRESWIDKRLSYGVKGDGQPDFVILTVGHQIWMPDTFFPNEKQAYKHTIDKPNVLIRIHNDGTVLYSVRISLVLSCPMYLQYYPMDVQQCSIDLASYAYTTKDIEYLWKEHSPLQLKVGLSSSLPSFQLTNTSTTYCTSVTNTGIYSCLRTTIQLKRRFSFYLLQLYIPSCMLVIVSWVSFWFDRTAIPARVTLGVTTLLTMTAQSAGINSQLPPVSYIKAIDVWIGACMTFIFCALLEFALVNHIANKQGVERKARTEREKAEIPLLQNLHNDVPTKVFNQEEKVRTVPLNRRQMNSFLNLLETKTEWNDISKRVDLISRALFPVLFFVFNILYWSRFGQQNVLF
Put plainly: Whole-cell patch clamp in CHO cells, GluClαE273R/βWT receptor. To be noted: +60 mV. The experiment is classed as cell-based. The method, then:
as §1, with “For high-level expression of the GluClαF276A/βWT mutant receptor in experiments assigned to determine its IVM-EC50, we used the X-tremeGENE HP DNA Transfection Reagent (Roche Life Science). Recordings were performed 72–96 h following the transfection.” left out
as §4

Experiment [7] has as its target T7, GluClαWT/βWT receptor (Caenorhabditis elegans, UniProt G5EBR3+Q17328).
T7 construct: entry codes of the full-length subunits used in this study; expressed in transfected cells; host or cells: CHO cells, transient co-transfection 1:1, pcDNA3.1
T7 sequence (G5EBR3 21-461): T3 sequence (G5EBR3 21-461)
T7 sequence (Q17328 23-434): T5 sequence (Q17328 23-434)
The experiment can be described thus: Whole-cell patch clamp in CHO cells, GluClαWT/βWT receptor. The experiment is classed as cell-based. The method, then: as §1, §2, §3

Experiment [8] addresses T8, GluClα[SSS→GSD]/βWT receptor (Caenorhabditis elegans, UniProt G5EBR3+Q17328, S236G/S238D).
T8 construct: entry codes of the full-length subunits used in this study; expressed in transfected cells; host or cells: CHO cells, transient co-transfection 1:1, pcDNA3.1
Put plainly: Whole-cell patch clamp in CHO cells, GluClα[SSS→GSD]/βWT receptor. To be noted: +60 mV. The experiment is classed as cell-based. The method, then: as §1, with “For high-level expression of the GluClαF276A/βWT mutant receptor in experiments assigned to determine its IVM-EC50, we used the X-tremeGENE HP DNA Transfection Reagent (Roche Life Science). Recordings were performed 72–96 h following the transfection.” left out
as §4

Experiment [9] deals with T9, GluClαP192Y/βWT receptor (Caenorhabditis elegans, UniProt G5EBR3+Q17328, P192Y).
T9 construct: entry codes of the full-length subunits used in this study; expressed in transfected cells; host or cells: CHO cells, transient co-transfection 1:1, pcDNA3.1
T9 sequence (G5EBR3 21-461 P192Y, one chain of several): as the sequence (G5EBR3 21-461 E273R, one chain of several) above, with P172Y, R253E counted along it
Put plainly: Whole-cell patch clamp in CHO cells, GluClαP192Y/βWT receptor. Format: cell-based. To be noted: +60 mV. As to the method: as §1, with “For high-level expression of the GluClαF276A/βWT mutant receptor in experiments assigned to determine its IVM-EC50, we used the X-tremeGENE HP DNA Transfection Reagent (Roche Life Science). Recordings were performed 72–96 h following the transfection.” left out
as §4

Experiment [10] deals with T10, GluClαP192E/βWT receptor (Caenorhabditis elegans, UniProt G5EBR3+Q17328, P192E).
T10 construct: entry codes of the full-length subunits used in this study; expressed in transfected cells; host or cells: CHO cells, transient co-transfection 1:1, pcDNA3.1
T10 sequence (G5EBR3 21-461 P192E, one chain of several): as the sequence (G5EBR3 21-461 E273R, one chain of several) above, with P172E, R253E counted along it
Put plainly: Whole-cell patch clamp in CHO cells, GluClαP192E/βWT receptor. Format: cell-based. Particulars: +60 mV. The method, then: as §1, with “For high-level expression of the GluClαF276A/βWT mutant receptor in experiments assigned to determine its IVM-EC50, we used the X-tremeGENE HP DNA Transfection Reagent (Roche Life Science). Recordings were performed 72–96 h following the transfection.” left out
as §4

Experiment [11] deals with T7, GluClαWT/βWT receptor. Also on record: method as in Degani-Katzav et al., [2016]. Particulars: CHO cells co-transfected with WT α and β subunits; ref Degani-Katzav et al., [2016]; cited from earlier work.
Experiment [12] deals with T11, GluClαP192M/βWT receptor (Caenorhabditis elegans, UniProt G5EBR3+Q17328, P192M).
T11 construct: entry codes of the full-length subunits used in this study; expressed in transfected cells; host or cells: CHO cells, transient co-transfection 1:1, pcDNA3.1
T11 sequence (G5EBR3 21-461 P192M, one chain of several): as the sequence (G5EBR3 21-461 E273R, one chain of several) above, with P172M, R253E counted along it
The experiment can be described thus: Whole-cell patch clamp in CHO cells, GluClαP192M/βWT receptor. The experiment is classed as cell-based. Particulars: +60 mV. The method, then: as §1, with “For high-level expression of the GluClαF276A/βWT mutant receptor in experiments assigned to determine its IVM-EC50, we used the X-tremeGENE HP DNA Transfection Reagent (Roche Life Science). Recordings were performed 72–96 h following the transfection.” left out
as §4

For experiment [13], the target named is T12, C. elegans GluClβWT subunit (GLC-2) (C. elegans) (UniProt Q17328).
T12 sequence: T5 sequence (Q17328 23-434)

This is an account of results in paper PMC5382172 (Frontiers in Molecular Neuroscience, 2017).

Numbering of substitutions follows the chain as printed. In names and notes the source's numbering stands.

T1 sequence (G5EBR3 21-461 F276A, one chain of several): as the sequence (G5EBR3 21-461 E273R, one chain of several) above, with R253E, F256A counted along it
T2 sequence (G5EBR3 21-461 Y194R, one chain of several): as the sequence (G5EBR3 21-461 E273R, one chain of several) above, with Y174R, R253E counted along it
T8 sequence (G5EBR3 21-461 S236G/S238D, one chain of several): as the sequence (G5EBR3 21-461 E273R, one chain of several) above, with S216G, S218D, R253E counted along it
T4 sequence (G5EBR3 21-461 F276W, one chain of several): as the sequence (G5EBR3 21-461 E273R, one chain of several) above, with R253E, F256W counted along it

As to `N[C@@H](CCC(=O)O)C(=O)O` [Glu, glutamate], the receptor population activated in [1] (1 mM Glu) was ~ 5%; in experiment [7] (0.3 mM Glu, calculated from the Glu dose-response curve), ~ 7%. The “Glu activation properties nH (Hill coefficient)” value in experiment [1] (CHO cells, +60 mV) stood at 1.3 ± 0.1; in [2], 1.5 ± 0.1; in experiment [4] it was 1.5 ± 0.1; in experiment [6], 1.5 ± 0.1; in [7] (CHO cells, +60 mV), 1.6 ± 0.1; in experiment [8] it was 1.3 ± 0.1. Further, the “Glu activation properties nH (Hill coefficient)” value in experiment [9] turned out to be 1.5 ± 0.1; in experiment [10] it was 1.5 ± 0.1; in experiment [12], 1.6 ± 0.1. Further, the entries for the “Hill coefficient of activation by Glu after pre-exposure to IVM” value in experiment [1] (pre-exposure to 50 nM IVM) and in experiment [7] (pre-exposure to 7 nM IVM) were 1.5 ± 0.03 and 1.2 ± 0.07, respectively. Besides, the “response to 10 mM Glu” value is “very weak responses” in experiment [3] and “very weak, rare responses” in experiment [5] ([2016]). The “cells responding to 100 mM Glu” value in experiment [5] (X-tremeGENE HP transfection, [2017]) was 4 of 46. For the same molecule, in experiment [11], the “response to Glu” value was “robust responses”.

B1: C. elegans GluClα (GLC-1) subunit, P192E (receptor)
chain: T3 sequence (G5EBR3 21-461) with P172E
Molecule B1 gave a whole-cell current amplitude in response to the Glu-EC50 concentration, CHO cells co-transfected with both subunits, +60 mV in experiment [13] of 3.1 nA.

B2: C. elegans GluClα (GLC-1) subunit, F276W (receptor)
chain: T3 sequence (G5EBR3 21-461) with F256W
In experiment [13], B2 had a whole-cell current amplitude in response to the Glu-EC50 concentration, CHO cells co-transfected with both subunits, +60 mV of 3 nA.

B3: C. elegans GluClα (GLC-1) subunit, P192Y (receptor)
chain: T3 sequence (G5EBR3 21-461) with P172Y
In experiment [13], B3 came in with a whole-cell current amplitude in response to the Glu-EC50 concentration, CHO cells co-transfected with both subunits, +60 mV of 2.1 nA.
